Results published in patent US20260250260A1, “POLYMORPH OF 7,8-DIHYDROXYFLAVONE, AND PREPARATION METHOD THEREFOR” (HUIANKAI (XIAMEN) PHARMACEUTICAL TECHNOLOGY CO., LTD., priority 2022, published 2026).
≈ marks a conversion by molar mass, not a printed value. Each block holds one compound with its values, some of them ahead of it.

Columns and labels:
Format in all cases: physicochemical
[1] = Stability of different 7,8-dihydroxyflavone crystal forms (XRPD characterization); conditions: for crystal form stability (general statement): performance embodiment, no conditions stated
Procedure: The stability of different 7,8-dihydroxyflavonoid crystal forms was studied under high temperature (60° C.), high humidity (25° C./92.5% RH), illumination (25° C./4500 Lux), and acceleration (40° C./75% RH) conditions, and samples were taken for XRPD characterization on day 7 and day 15, respectively.

[2] = Dynamic vapor sorption analysis (DVS); conditions: range of 0%-95% relative humidity; mass gain relative to initial mass
Procedure: Dynamic vapor sorption and desorption analysis was measured using DVS Intrinsic (SMS, UK). The test was performed in gradient mode with a humidity change of 50%-95%-0%-50%, with a change of 10% per humidity gradient in the range of 0% to 90%. The gradient endpoint was determined by dm/dt; the gradient endpoint lies where the dm/dt was less than 0.002% and maintained for 10 minutes. After the test was completed, the samples were analyzed by XRPD to confirm whether the solid morphology had changed.

[3] = Dynamic solubility in biological medium (FaSSIF, FeSSIF, FaSSGF) and water
Procedure: The 20 mg of 7,8-dihydroxyflavones in different crystal forms were weighed out separately and added into 4.0 mL of biological medium or water, and shaken at a constant temperature of 37° C. for 24 h. Samples were taken at 0.5 h, 2 h and 24 h, respectively, and the sampled solutions were filtered through 0.22 μm aquo-system filter membranes. Signal peak areas of the solutions were measured by HPLC, and finally, concentrations of the compounds in the solutions were calculated based on the peak areas, HPLC standard curves of the raw materials, and the dilution times. In addition, the supernatant at 24 h was taken to test pH, and the residual solid was subjected to the XRPD test. [table]

[4] = Crystal form conversion of comparative crystal forms on drying, at room temperature or on heating
[5] = FaSSGF pH 1.6, residual solid after 24 h at 37° C.
[6] = FaSSGF pH 1.6, supernatant at 24 h
[7] = FaSSIF pH 6.5, residual solid after 24 h at 37° C.
[8] = FaSSIF pH 6.5, supernatant at 24 h
[9] = FeSSIF pH 5.0, residual solid after 24 h at 37° C.
[10] = FeSSIF pH 5.0, supernatant at 24 h
[11] = Water, residual solid after 24 h at 37° C.

SMILES: O=c1cc(-c2ccccc2)oc2c(O)c(O)ccc12 [Crystal form C, 7,8-dihydroxyflavone]
Result on day 7 (XRPD) ([1]; Acceleration 40° C./75% RH): No change
Result on day 15 (XRPD) ([1]; Acceleration 40° C./75% RH): No change
Result on day 7 (XRPD) ([1]; High humidity 25° C./92.5% RH): No change
Result on day 15 (XRPD) ([1]; High humidity 25° C./92.5% RH): No change
Result on day 7 (XRPD) ([1]; High temperature 60° C.): No change
Result on day 15 (XRPD) ([1]; High temperature 60° C.): No change
Result on day 7 (XRPD) ([1]; Illumination 25° C./4500 Lux): No change
Result on day 15 (XRPD) ([1]; Illumination 25° C./4500 Lux): No change
crystal form stability (general statement) [1]: stable and does not suffer from crystal transformation
weight gain in the dynamic vapor sorption plot [2]: less than 0.1%
Solubility 0.5 h ([3]; FaSSGF pH 1.6, 37° C.): 2.5 µg/mL (≈ 9.83 µM)
Solubility 2 h ([3]; FaSSGF pH 1.6, 37° C.): 2.2 µg/mL (≈ 8.65 µM)
Solubility 24 h ([3]; FaSSGF pH 1.6, 37° C.): 2.4 µg/mL (≈ 9.44 µM)
Residual solid XRPD [3, 5]: Crystal form C
Final pH [3, 6]: 1.6
Solubility 0.5 h ([3]; FaSSIF pH 6.5, 37° C.): 9.0 µg/mL (≈ 35.4 µM)
Solubility 2 h ([3]; FaSSIF pH 6.5, 37° C.): 10.2 µg/mL (≈ 40.1 µM)
Solubility 24 h ([3]; FaSSIF pH 6.5, 37° C.): 9.8 µg/mL (≈ 38.5 µM)
Residual solid XRPD [3, 7]: Crystal form C
Final pH [3, 8]: 6.5
Solubility 0.5 h ([3]; FeSSIF pH 5.0, 37° C.): 33.5 µg/mL (≈ 132 µM)
Solubility 2 h ([3]; FeSSIF pH 5.0, 37° C.): 33.9 µg/mL (≈ 133 µM)
Solubility 24 h ([3]; FeSSIF pH 5.0, 37° C.): 33.2 µg/mL (≈ 131 µM)
Residual solid XRPD [3, 9]: Crystal form C
Final pH [3, 10]: 5.0
Solubility 0.5 h ([3]; Water, 37° C.): 2.6 µg/mL (≈ 10.2 µM)
Solubility 2 h ([3]; Water, 37° C.): 3.1 µg/mL (≈ 12.2 µM)
Solubility 24 h ([3]; Water, 37° C.): 3.3 µg/mL (≈ 13 µM)
Residual solid XRPD [3, 11]: Crystal form C
Final pH ([3]; Water, supernatant at 24 h): 5.5

SMILES: O=c1cc(-c2ccccc2)oc2c(O)c(O)ccc12 [Crystal form N, 7,8-dihydroxyflavone]
Result on day 7 (XRPD) ([1]; High temperature 60° C.): No change
Result on day 15 (XRPD) ([1]; High temperature 60° C.): No change
crystal form stability (general statement) [1]: stable and does not suffer from crystal transformation
weight gain in the dynamic vapor sorption plot [2]: less than 0.1%
Solubility 0.5 h ([3]; FaSSGF pH 1.6, 37° C.): 13.6 µg/mL (≈ 53.5 µM)
Solubility 2 h ([3]; FaSSGF pH 1.6, 37° C.): 18.7 µg/mL (≈ 73.6 µM)
Solubility 24 h ([3]; FaSSGF pH 1.6, 37° C.): 16.1 µg/mL (≈ 63.3 µM)
Residual solid XRPD [3, 5]: Crystal form N
Final pH [3, 6]: 1.6
Solubility 0.5 h ([3]; FaSSIF pH 6.5, 37° C.): 35.8 µg/mL (≈ 141 µM)
Solubility 2 h ([3]; FaSSIF pH 6.5, 37° C.): 38.7 µg/mL (≈ 152 µM)
Solubility 24 h ([3]; FaSSIF pH 6.5, 37° C.): 36.5 µg/mL (≈ 144 µM)
Residual solid XRPD [3, 7]: Crystal form N
Final pH [3, 8]: 6.4
Solubility 0.5 h ([3]; FeSSIF pH 5.0, 37° C.): 111.9 µg/mL (≈ 440 µM)
Solubility 2 h ([3]; FeSSIF pH 5.0, 37° C.): 114.2 µg/mL (≈ 449 µM)
Solubility 24 h ([3]; FeSSIF pH 5.0, 37° C.): 107.6 µg/mL (≈ 423 µM)
Residual solid XRPD [3, 9]: Crystal form N
Final pH [3, 10]: 5.0
Solubility 0.5 h ([3]; Water, 37° C.): 15.1 µg/mL (≈ 59.4 µM)
Solubility 2 h ([3]; Water, 37° C.): 11.8 µg/mL (≈ 46.4 µM)
Solubility 24 h ([3]; Water, 37° C.): 3.1 µg/mL (≈ 12.2 µM)
Residual solid XRPD [3, 11]: Crystal form C
Final pH ([3]; Water, supernatant at 24 h): 5.2

SMILES: O=c1cc(-c2ccccc2)oc2c(O)c(O)ccc12 [Crystal form P, 7,8-dihydroxyflavone]
Result on day 7 (XRPD) ([1]; Acceleration 40° C./75% RH): No change
Result on day 15 (XRPD) ([1]; Acceleration 40° C./75% RH): No change
Result on day 7 (XRPD) ([1]; High humidity 25° C./92.5% RH): No change
Result on day 15 (XRPD) ([1]; High humidity 25° C./92.5% RH): No change
Result on day 7 (XRPD) ([1]; High temperature 60° C.): No change
Result on day 15 (XRPD) ([1]; High temperature 60° C.): No change
Result on day 7 (XRPD) ([1]; Illumination 25° C./4500 Lux): No change
Result on day 15 (XRPD) ([1]; Illumination 25° C./4500 Lux): No change
crystal form stability (general statement) [1]: stable and does not suffer from crystal transformation
weight gain in the dynamic vapor sorption plot [2]: less than 0.1%
Solubility 0.5 h ([3]; FaSSGF pH 1.6, 37° C.): 8.6 µg/mL (≈ 33.8 µM)
Solubility 2 h ([3]; FaSSGF pH 1.6, 37° C.): 8.6 µg/mL (≈ 33.8 µM)
Solubility 24 h ([3]; FaSSGF pH 1.6, 37° C.): 5.6 µg/mL (≈ 22 µM)
Residual solid XRPD [3, 5]: Crystal form P
Final pH [3, 6]: 1.6
Solubility 0.5 h ([3]; FaSSIF pH 6.5, 37° C.): 24.3 µg/mL (≈ 95.6 µM)
Solubility 2 h ([3]; FaSSIF pH 6.5, 37° C.): 25.9 µg/mL (≈ 102 µM)
Solubility 24 h ([3]; FaSSIF pH 6.5, 37° C.): 20.5 µg/mL (≈ 80.6 µM)
Residual solid XRPD [3, 7]: Crystal form P
Final pH [3, 8]: 6.4
Solubility 0.5 h ([3]; FeSSIF pH 5.0, 37° C.): 74.5 µg/mL (≈ 293 µM)
Solubility 2 h ([3]; FeSSIF pH 5.0, 37° C.): 74.3 µg/mL (≈ 292 µM)
Solubility 24 h ([3]; FeSSIF pH 5.0, 37° C.): 71.2 µg/mL (≈ 280 µM)
Residual solid XRPD [3, 9]: Crystal form P
Final pH [3, 10]: 5.0
Solubility 0.5 h ([3]; Water, 37° C.): 11.2 µg/mL (≈ 44.1 µM)
Solubility 2 h ([3]; Water, 37° C.): 10.6 µg/mL (≈ 41.7 µM)
Solubility 24 h ([3]; Water, 37° C.): 10.6 µg/mL (≈ 41.7 µM)
Residual solid XRPD [3, 11]: Crystal form P
Final pH ([3]; Water, supernatant at 24 h): 4.6

SMILES: O=c1cc(-c2ccccc2)oc2c(O)c(O)ccc12 [crystal form A, 7,8-dihydroxyflavone]
crystal form conversion ([4]; heated to 130° C.): convert to mixed crystals containing the crystal form F
crystal form conversion ([4]; heated to 160° C.): convert to mixed crystals containing the crystal form F and the crystal form J
crystal form conversion ([4]; under sufficient drying): convert to the crystal form N

SMILES: O=c1cc(-c2ccccc2)oc2c(O)c(O)ccc12 [crystal form B, 7,8-dihydroxyflavone]
crystal form conversion ([4]; at 180° C.): convert to mixed crystals containing the crystal form F and the crystal form J
crystal form conversion ([4]; at room temperature): tend to convert to the crystal form C
crystal form conversion ([4]; heated to 110° C.): some characteristic peaks of the crystal form J will appear

SMILES: O=c1cc(-c2ccccc2)oc2c(O)c(O)ccc12 [crystal form G, 7,8-dihydroxyflavone]
crystal form conversion ([4]; heated to 140° C.): convert to the crystal form T which has a small amount of crystal form J

SMILES: O=c1cc(-c2ccccc2)oc2c(O)c(O)ccc12 [crystal form K, 7,8-dihydroxyflavone]
crystal form conversion ([4]; heated to 150° C. and then cooled to room temperature): convert to mixed crystals of the crystal form F and the crystal form J

SMILES: O=c1cc(-c2ccccc2)oc2c(O)c(O)ccc12 [crystal form R, 7,8-dihydroxyflavone]
crystal form conversion ([4]; at room temperature): cannot exist at room temperature for a long period

SMILES: O=c1cc(-c2ccccc2)oc2c(O)c(O)ccc12 [crystal form T, 7,8-dihydroxyflavone]
crystal form conversion ([4]; at room temperature): cannot exist at room temperature for a long period

The next lines start with results.

crystal form conversion ([4]; at room temperature): convert to the crystal form N
SMILES: O=c1cc(-c2ccccc2)oc2c(O)c(O)ccc12 [crystal form E, 7,8-dihydroxyflavone]

crystal form conversion ([4]; at room temperature): convert to the crystal form B
SMILES: O=c1cc(-c2ccccc2)oc2c(O)c(O)ccc12 [crystal form F, 7,8-dihydroxyflavone]
crystal form conversion ([4]; heated to 220° C.): convert to mixed crystals of the crystal form J and the crystal form P

crystal form conversion ([4]; at room temperature): convert to other crystal forms
SMILES: O=c1cc(-c2ccccc2)oc2c(O)c(O)ccc12 [crystal form H, 7,8-dihydroxyflavone]

crystal form conversion ([4]; at room temperature): convert to the crystal form C
SMILES: O=c1cc(-c2ccccc2)oc2c(O)c(O)ccc12 [crystal form M, 7,8-dihydroxyflavone]

crystal form conversion ([4]; at room temperature): convert to the crystal form C
SMILES: O=c1cc(-c2ccccc2)oc2c(O)c(O)ccc12 [crystal form O, 7,8-dihydroxyflavone]

crystal form conversion ([4]; at room temperature): convert to the crystal form C
SMILES: O=c1cc(-c2ccccc2)oc2c(O)c(O)ccc12 [crystal form Q, 7,8-dihydroxyflavone]

crystal form conversion ([4]; at room temperature): convert to the crystal form C
SMILES: O=c1cc(-c2ccccc2)oc2c(O)c(O)ccc12 [crystal form S, 7,8-dihydroxyflavone]
